Reference: patent publication US7528124B2, “1,3-dihydro-2H-indol-2-one derivative” (Taisho Pharmaceutical Co., Ltd., priority 2003, dated 2009)
Where two headings read alike, the source gives them in different places.

Test: Measurement of drug concentration in plasma and brain following oral administration to rats (LC/MS/MS)
Format: in vivo, Sprague-Dawley rats
Details: rat; for concentration at 1 h: Table 2, 1 hour after administration
Protocol: Measurement of Drug Concentration in Plasma and Brain following Oral Administration to Rats
The compound of Example 1 and compound A (WO01/55130, listed in EXEMPLE 1) were orally administered to Sprague-Dawley rats (male, 8 weeks) at a dose of 5 mL/kg (10 mg/kg) as solutions (each compound was dissolved with 0.03 mol/L HCl containing 5% Cremophor EL, and concentration was prepared by 2 mg/ml).
Blood was collected from the tail vein at 1 and 2 hours after administration. Immediately the brain was excised, 20% homogenate was prepared with distilled water, for assay sample. Similarly, 0.3 mL of blood was collected from the tail vein at 2, 4, 8, and 24 hours following administration, and the plasma following centrifugation was used as a sample.
The concentrations of the compound of Example 1 and compound A in plasma were measured using liquid chromatography tandem mass spectrometry (LC/MS/MS). Specifically, 200 μL of acetonitrile was added to 50 μL of plasma or brain homogenate, vortex mixed and centrifuged. The resulting supernatant was put in a liquid chromatograph with an Agilent Zorbax SB-C18 5 μm column (50 mm long, 2.1 mm in diameter). The elute was 0.1% acetic acid/acetonitrile containing 0.1% acetic acid. The MS/MS detection were performed using a Sciex API3000 LC/MS/MS system with ESI for ionization, in positive ions and MRM mode for monitoring. The m/z 632→472 and m/z 630→472 were monitored for the compound of Example 1 and compound A, respectively.
The concentration of plasma and brain at each sampling point and mean plasma levels after oral administration were shown in Table 2 and Table 3, respectively.

COc1ccc(S(=O)(=O)N2C(=O)C(c3ccccc3OC)(N3C[C@H](F)C[C@H]3C(=O)N(C)C)c3cc(Cl)ccc32)c(OC)c1 (single isomer, unassigned) [Example 1]
concentration at 1 h (male, Sprague-Dawley, brain, po, 10 mg/kg, brain homogenate, average of three, read-out: Drug concentration, brain, 1 hour): 35 ng/g
concentration at 1 h (male, Sprague-Dawley, plasma, po, 10 mg/kg, average of three, read-out: Drug concentration, plasma, 1 hour): 440 ng/mL
concentration at 2 h (male, Sprague-Dawley, plasma, po, 10 mg/kg, Table 2, 2 hours after administration, average of three, read-out: Drug concentration, plasma, 2 hours): 219 ng/mL
concentration at 2 h (male, Sprague-Dawley, plasma, po, 10 mg/kg, Table 3, serial tail vein sampling, 2 hours, average of three, read-out: Drug concentration in plasma, 2 hours): 139 ng/mL
concentration at 4 h (male, Sprague-Dawley, plasma, po, 10 mg/kg, Table 3, serial tail vein sampling, 4 hours, average of three): 51 ng/mL
concentration at 8 h (male, Sprague-Dawley, plasma, po, 10 mg/kg, Table 3, serial tail vein sampling, 8 hours, average of three): 10 ng/mL
concentration at 2 h (male, Sprague-Dawley, Table 2, oral 10 mg/kg, 2 hours after administration, brain homogenate, average of three, ND: below the quantification detection limit of 5 ng/mL, read-out: Drug concentration, brain, 2 hours): 11 ng/g
plasma levels compared with compound A (oral 10 mg/kg, after 2 hours): higher plasma levels
brain levels compared with compound A (oral 10 mg/kg, at 1 and 2 hours): higher than those of compound A
